Three compounds from ChEMBL document CHEMBL2057181 (Bioorg Med Chem Lett, 2012) can be followed below.

pIC50, pKi: −log10 of the molar value.

As a reminder, the pIC50 is the negative decadic logarithm of the IC50, by convention in mol/L. As a reminder, the pKi is the negative decadic logarithm of the Ki, by convention in mol/L.

Assay [1] deals with T1, Phosphoethanolamine N-methyltransferase (Plasmodium falciparum, UniProt Q8IDQ9).
T1 sequence (Q8IDQ9 whole entry): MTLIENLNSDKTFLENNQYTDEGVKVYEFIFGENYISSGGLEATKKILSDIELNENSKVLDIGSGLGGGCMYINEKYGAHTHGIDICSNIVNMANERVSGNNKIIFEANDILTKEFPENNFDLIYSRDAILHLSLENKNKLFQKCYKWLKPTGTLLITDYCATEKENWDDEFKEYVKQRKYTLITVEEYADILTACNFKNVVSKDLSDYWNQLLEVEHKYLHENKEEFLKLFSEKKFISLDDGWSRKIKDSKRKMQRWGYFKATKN
The experiment in a line: Inhibition of Plasmodium falciparum phosphoethanolamine methyltransferase using phospethanolamine as substrate by radiochemical assay in presence of S-adenosylmethionine.

The nature of assay [2]: Inhibition of Haemonchus contortus phosphoethanolamine methyltransferase2 conversion of phosphomonomethylethanolamine to phosphodimethylethanolamine by radiochemical assay in presence of S-adenosylmethionine.
The target of assay [3] is Histamine N-methyltransferase (Homo sapiens, UniProt P50135). The assay can be described thus: Inhibition of histamine N-methyltransferase by radiochemical assay.
Chain of Histamine N-methyltransferase (P50135 whole entry): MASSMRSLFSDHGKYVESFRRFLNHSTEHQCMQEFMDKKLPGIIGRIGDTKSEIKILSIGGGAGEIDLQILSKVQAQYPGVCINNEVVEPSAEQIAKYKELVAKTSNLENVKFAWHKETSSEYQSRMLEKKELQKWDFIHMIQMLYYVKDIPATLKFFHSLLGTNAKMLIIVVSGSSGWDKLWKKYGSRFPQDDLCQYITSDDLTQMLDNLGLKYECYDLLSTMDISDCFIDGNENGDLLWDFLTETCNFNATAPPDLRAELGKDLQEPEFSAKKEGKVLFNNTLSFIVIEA
The nature of assay [4]: Inhibition of Haemonchus contortus phosphoethanolamine methyltransferase1-mediated conversion of phosphoethanolamine to phosphomonomethylethanolamine by radiochemical assay in presence of S-adenosylmethionine.

In the case of `COc1cc(NC(C)CCCN)c2ncccc2c1` (stereo not given) [PRIMAQUINE], the pIC50 in assay [1] is 3.34. On to `CCN(CC)CCCC(C)Nc1ccnc2cc(Cl)ccc12` (stereo not given) [CHLOROQUINE], for which, in assay [1], the pIC50 was 3.26. Regarding `CCN(CC)Cc1cc(Nc2ccnc3cc(Cl)ccc23)ccc1O`, the pIC50 in assay [2] and in assay [4] was 2.52 in each case. Moreover, in assay [3], the pKi is 7.72.
